# Values quoted from earlier work, collected in US20250115648A1 (priority 2013, published 2025).
# Where “and” joins values, the source holds several entries; their conditions need not be identical. Equal entries are not always repeated.
# Details: cited from earlier work; for Peak Abs.: peak absorbance wavelength of exemplary fluorescent reporter molecule; for Peak Em.: peak emission wavelength of exemplary fluorescent reporter molecule
compound,measurement,value
CC1(C)C(=CC=C2CCCC(C=CC3=[N+](CCCCCC(=O)[O-])c4ccc(S(=O)(=O)[O-])cc4C3(C)C)=C2Oc2ccc(S(=O)(=O)[O-])cc2)N(CCCCS(=O)(=O)[O-])c2ccc(S(=O)(=O)[O-])cc21.[Na+].[Na+].[Na+].[Na+] [IRDye 800CW],Peak Abs.,774 nanometers
same,Peak Em.,789 nanometers
CN(C)c1ccc2c(-c3ccc(CCl)cc3)c3ccc(=[N+](C)C)cc-3oc2c1.[Cl-],Peak Abs.,551 nanometers
same,Peak Em.,576 nanometers
"Cc1c2oc3c(C)c(N)cc(C(=O)N[C@@H]4C(=O)N[C@H](C(C)C)C(=O)N5CCC[C@H]5C(=O)N(C)CC(=O)N(C)[C@@H](C(C)C)C(=O)O[C@@H]4C)c3nc-2c(C(=O)N[C@@H]2C(=O)N[C@H](C(C)C)C(=O)N3CCC[C@H]3C(=O)N(C)CC(=O)N(C)[C@@H](C(C)C)C(=O)O[C@@H]2C)c(N)c1=O [Compound 7-AAD, 7-AAD]",Peak Abs.,549 nanometers
same,Peak Em.,644 nanometers
O=C(COc1ccc(/C=C/c2ccc3n2[B-](F)(F)[N+]2=C(c4cccs4)C=CC2=C3)cc1)NCCCCCC(=O)ON1C(=O)CCC1=O [Bodipy 630/650-X],Peak Em.,641 nanometers
CC1CC(C)(C)Nc2c1cc1c(c2S(=O)(=O)[O-])Oc2c(S(=O)(=O)[O-])c3c(cc2=C1c1c(Cl)c(SCC(=O)NCCCCCC(=O)ON2C(=O)CCC2=O)c(Cl)c(Cl)c1C(=O)O)C(C)CC(C)(C)N=3.[H+].[Na+] (stereo not shown) [Alexa Fluor 546],Peak Abs.,561 nanometers
same,Peak Em.,572 nanometers
SYTO 16,Peak Abs.,490 nanometers
same,Peak Em.,520 nanometers
carboxytetramethyl-rhodamine [TAMRA],Peak Abs.,565 nanometers
same,Peak Em.,580 nanometers
COc1cc2cc(-c3ccc(C(=O)O)cc3C(=O)O)oc2cc1N1CCOCCOCCN(c2cc3oc(-c4ccc(C(=O)O)cc4C(=O)O)cc3cc2OC)CCOCCOCC1 [PBFI],Peak Abs.,360 nanometers
same,Peak Em.,420 nanometers
O=C([O-])CN(CC(=O)[O-])c1ccccc1OCCOc1cc(NC(=O)c2ccc3c(c2)C(=O)OC32c3cc(Cl)c([O-])cc3Oc3cc([O-])c(Cl)cc32)ccc1N(CC(=O)[O-])CC(=O)[O-].[K+].[K+].[K+].[K+].[K+].[K+] [Calcium Green-1],Peak Abs.,506 nanometers
same,Peak Em.,540 nanometers
"Cc1c(CC(=O)O)c(=O)oc2cc(N)ccc12 [AMCA, aminomethylcoumarin]",Peak Abs.,345 nanometers
same,Peak Em.,425 nanometers
CN1/C(=C/c2cc[n+](CCC[N+](C)(C)CCC[N+](C)(C)CCC[n+]3ccc(/C=C4\Sc5ccccc5N4C)c4ccccc43)c3ccccc23)Sc2ccccc21.[I-].[I-].[I-].[I-] [TOTO-1],Peak Abs.,513 nanometers
same,Peak Em.,531 nanometers
CN(C)CCNc1ccc(O)c2c1C(=O)c1c(O)ccc(NCCN(C)C)c1C2=O [DRAQ5],Peak Abs.,650 nanometers
same,Peak Em.,680 nanometers
O=C(O)CSc1c(F)c(F)c(C(=O)O)c(-c2c3cc(F)c(=O)cc-3oc3cc(O)c(F)cc23)c1F [Oregon Green 514],Peak Abs.,512 nanometers
same,Peak Em.,532 nanometers
C[N+]1=C(/C=C/C=C/C=C2\N(Cc3ccc(CCl)cc3)c3ccccc3C2(C)C)C(C)(C)c2ccccc21.[Cl-] [MitoTracker Deep Red FM],Peak Abs.,641 nanometers
same,Peak Em.,661 nanometers
CC[N+]1=c2cc3c(cc2CCC1)=Nc1cc2c(cc1O3)N(CCCC(=O)O)C(C)(C)C=C2CS(=O)(=O)[O-] [ATTO 680],Peak Abs.,680 nanometers
same,Peak Em.,700 nanometers
O=C(COc1ccc(C2=[N+]3C(=Cc4ccc(-c5cccs5)n4[B-]3(F)F)C=C2)cc1)NCCCCCC(=O)ON1C(=O)CCC1=O [Bodipy TR-X],Peak Abs.,588 nanometers
same,Peak Em.,621 nanometers
Fast Blue,Peak Abs.,360 nanometers
same,Peak Em.,440 nanometers
ClCc1ccc(C2=c3cc4c5c(c3Oc3c2cc2c6c3CCCN6CCC2)CCC[N+]=5CCC4)cc1.[Cl-] [MitoTracker Red CMXRos],Peak Abs.,578 nanometers
same,Peak Em.,597 nanometers
CCN1C(=CC=CC2=[N+](CCCCCC(=O)O)c3ccc(S(=O)(=O)O)cc3C2(C)C)C(C)(C)c2cc(S(=O)(=O)[O-])ccc21 [Cy3],Peak Abs.,552 nanometers
same,Peak Em.,570 nanometers
CC1(C)C=C(CS(=O)(=O)O)c2cc3c(C(F)(F)F)cc(=O)oc3cc2N1CCCCCC(=O)ON1C(=O)CCC1=O.CCN(CC)CC [Alexa Fluor 430],Peak Em.,540 nanometers
CC1(C)C2=C(Cl)C(=O)C(Cl)=CC2=Nc2ccc(O)cc21 [DDAO],Peak Abs.,648 nanometers
same,Peak Em.,658 nanometers
O=c1cc(CBr)c2cc3c4c(c2o1)CCCN4CCC3 [CellTracker Violet BMQC],Peak Abs.,415 nanometers
same,Peak Em.,516 nanometers
Cy5.5,Peak Abs.,672 nanometers and 678 nanometers
same,Peak Em.,690 nanometers and 696 nanometers
O=C(O)c1cc2cc(F)c(O)c(F)c2oc1=O [Pacific Blue],Peak Abs.,405 nanometers and 410 nanometers
same,Peak Em.,455 nanometers
CCCCCCCCCCCCCCCCCCN1/C(=C\C=C\c2oc3ccccc3[n+]2CCCCCCCCCCCCCCCCCC)Oc2ccccc21.[O-][Cl+3]([O-])([O-])[O-] [DiO],Peak Abs.,484 nanometers
same,Peak Em.,501 nanometers
O=S(=O)(O)c1cc(Nc2nc(Nc3ccccc3)nc(N(CCO)CCO)n2)ccc1/C=C/c1ccc(Nc2nc(Nc3ccccc3)nc(N(CCO)CCO)n2)cc1S(=O)(=O)O [Calcofluor White],Peak Abs.,350 nanometers
same,Peak Em.,440 nanometers
Texas Red,Peak Abs.,592 nanometers
same,Peak Em.,615 nanometers
Carboxynaphthofluorescein,Peak Abs.,600 nanometers
same,Peak Em.,674 nanometers
CN1C(=Cc2cc[n+](CCC[N+](C)(C)CCC[N+](C)(C)CCC[n+]3ccc(C=C4Sc5ccccc5N4C)cc3)cc2)Sc2ccccc21.[I-].[I-].[I-].[I-] [BOBO-1],Peak Abs.,570 nanometers
same,Peak Em.,602 nanometers
Fluo-4,Peak Abs.,494 nanometers
same,Peak Em.,540 nanometers
Cc1c(CC(=O)O)c(=O)oc2c(F)c(O)c(F)cc12 [Marina Blue],Peak Abs.,365 nanometers
same,Peak Em.,460 nanometers
CCCCCCCCCCCCCCCCCCN1/C(=C/C=C/C2=[N+](CCCCCCCCCCCCCCCCCC)c3ccccc3C2(C)C)C(C)(C)c2ccccc21.[O-][Cl+3]([O-])([O-])[O-] [DiI (CellTrackerDiI)],Peak Abs.,551 nanometers
same,Peak Em.,568 nanometers
Methoxycoumarin,Peak Abs.,360 nanometers
same,Peak Em.,410 nanometers
Cc1c(CC(=O)NCCCCCC(=O)O)c(=O)oc2cc(N)ccc12 [AMCA-X],Peak Abs.,353 nanometers
same,Peak Em.,442 nanometers
CN1/C(=C/C=C/c2cc[n+](CCC[N+](C)(C)CCC[N+](C)(C)CCC[n+]3ccc(/C=C/C=C4/Oc5ccccc5N4C)cc3)cc2)Oc2ccccc21.[I-].[I-].[I-].[I-] [POPO-3],Peak Abs.,532 nanometers
same,Peak Em.,573 nanometers
Rhod-2,Peak Abs.,551 nanometers
same,Peak Em.,576 nanometers
CN(C)c1ccc(-c2cnc(-c3ccc(S(=O)(=O)NCCNC(=O)c4c(F)c(F)c(F)c(F)c4F)cc3)o2)cc1 [ER-Tracker Blue-White DPX],Peak Abs.,371 nanometers
same,Peak Em.,554 nanometers
CN(C)CCNC(=O)CCc1ccc2n1[B-](F)(F)[N+]1=C(c3ccc[nH]3)C=CC1=C2 [LysoTracker Red],Peak Abs.,573 nanometers
same,Peak Em.,592 nanometers
CCCCCCCCCCCCCCCCCCN1/C(=C\C=C\c2oc3ccccc3[n+]2CCCCCCCCCCCCCCCCCC)Oc2ccccc21.[O-][Cl+3]([O-])([O-])[O-] [DiO (Vybrant DiO)],Peak Abs.,489 nanometers
same,Peak Em.,506 nanometers
SYTO 9,Peak Abs.,482 nanometers
same,Peak Em.,500 nanometers
TOTO-3,Peak Abs.,642 nanometers
same,Peak Em.,661 nanometers
CC1=CC(C)=[N+]2C1=Cc1c(C)cc(C)n1[B-]2(F)F [BODIPY 505/515],Peak Abs.,502 nanometers
same,Peak Em.,540 nanometers
CCN1c2cc3c(cc2C(C)=CC1(C)C)N=c1cc2c(cc1O3)=[N+](CCCC(=O)O)C(C)(C)C=C2CS(=O)(=O)O [ATTO 700],Peak Abs.,699 nanometers
same,Peak Em.,719 nanometers
"Phycoerythrin [Phycoerythrin (PE, R-phycoerythrin)]",Peak Abs.,567 nanometers
same,Peak Em.,576 nanometers
CC1=CC(C)(C)N(C)c2cc3[o+]c4cc5c(cc4c(-c4cc(NC(=O)c6ccc(CCl)cc6)ccc4C(=O)[O-])c3cc21)C(C)=CC(C)(C)N5C.CC1=CC(C)(C)N(C)c2cc3[o+]c4cc5c(cc4c(-c4ccc(NC(=O)c6ccc(CCl)cc6)cc4C(=O)[O-])c3cc21)C(C)=CC(C)(C)N5C [CellTracker Red CMTPX],Peak Abs.,584 nanometers
same,Peak Em.,613 nanometers
CN1/C(=C/c2cc[n+](CCC[N+](C)(C)CCC[N+](C)(C)CCC[n+]3ccc(/C=C4/Oc5ccccc5N4C)cc3)cc2)Oc2ccccc21.[I-].[I-].[I-].[I-] [POPO-1],Peak Abs.,434 nanometers
same,Peak Em.,456 nanometers
O=C(O)CCCCCNc1ccc([N+](=O)[O-])c2nonc12 [NBD-X],Peak Abs.,467 nanometers
same,Peak Em.,538 nanometers
"CC(=O)Oc1cc2c(cc1Cl)C(c1ccccc1C(=O)O)c1cc(Cl)c(OC(C)=O)cc1O2 [H2DCFDA (H2-DCF, DCFR)]",Peak Abs.,504 nanometers
same,Peak Em.,540 nanometers
Cc1cc(=O)oc2c(F)c(O)c(F)cc12 [DiFMU (pH 9.0)],Peak Abs.,357 nanometers
same,Peak Em.,450 nanometers
O=C([O-])c1ccc(C2=c3cc4c5c(c3Oc3c2cc2c6c3CCCN6CCC2)CCC[N+]=5CCC4)c(C(=O)O)c1 [Compound 5-ROX],Peak Abs.,577 nanometers
same,Peak Em.,603 nanometers
Nc1ccc([N+](=O)[O-])c2nonc12 [NBD Amine],Peak Abs.,450 nanometers
same,Peak Em.,530 nanometers
